Broadly, the EC50 is the concentration that produces a half-maximal response. Usually melting point stands for the temperature, or range, at which the solid turns liquid.

The structures appear in SMILES notation.

The target in one data set is T1, rat mGluR5 receptor (Rattus norvegicus, UniProt P31424).
T1 construct: expressed in transfected cells
Nature of the data set: mGluR5 assay on HEK-expressing rat mGluR5 (fluorescent cell based Ca2+ mobilization assay). The following applies: HEK-293 cells stably expressing rat mGluR5; no co-addition of glutamate; mean of at least three independent experiments in duplicate; read-out: Ca++ Flux (mean EC50). As to the method:
Positive functional expression of HEK-293 cells stably expressing rat mGluR5 receptor was determined by measuring intracellular Ca^2+ changes using a Fluorometric Imaging Plate Reader (FLIPR, Molecular Devices, Sunnyvale, Calif.) in response to glutamate or selective known mGluR5 agonists and antagonists. Rat mGluR5 RT-PCR products in HEK-293 cells were sequenced and found 100% identical to rat mGluR5 Genbank reference sequence (NM_017012). HEK-293 cells expressing rmGluR5 were maintained in media containing DMEM, dialyzed Fetal Bovine Serum (10%), Glutamax™ (2 mM), Penicillin (100 units/ml), Streptomycin (100 μg/ml), Geneticin (100 μg/ml) and Hygromycin-B (40 μg/ml) at 37° C./5% CO2.
After one day of incubation, cells were washed with assay buffer containing: 142 mM NaCl, 6 mM KCl, 1 mM […], 1 mM CaCl2, 20 mM HEPES, 1 g/L glucose, 0.125 mM sulfinpyrazone, pH 7.4. After 60 min of loading with 4 uM Fluo-4 (TefLabs, Austin, Tex.), the cells were washed three times with 50 μl of PBS Buffer and resuspended in 45 μl of assay Buffer. The plates were then transferred to a Fluorometric Imaging Plate Reader (FLIPR, Molecular Devices, Sunnyvale, Calif.) for the assessment of intracellular calcium flux. After monitoring the baseline fluorescence for 10 seconds, increasing concentrations of representative compound (from 0.01 to 60 μM) of the present invention diluted in Assay Buffer (15 μl of 4× dilutions) was added to the cell. The final DMSO concentration in the assay was 0.3%. In each experiment, fluorescence was then monitored as a function of time for 3 minutes and the data analyzed using Microsoft Excel and GraphPad Prism. Each data point was also measured two times.
Under these experimental conditions, this HEK-rat mGluR5 cell line is able to directly detect positive allosteric modulators without the need of co-addition of glutamate or mGluR5 agonist.
The concentration-response curves of representative compounds of the present invention were generated using the Prism GraphPad software (Graph Pad Inc, San Diego, USA). The curves were fitted to a four-parameter logistic equation:
(Y=Bottom+(Top−Bottom)/(1+10̂((LogEC50−X)*Hill Slope)
allowing determination of EC50 values.
The Table 1 below represents the mean EC50 obtained from at least three independent experiments of selected molecules performed in duplicate.
Background: A change in cytosolic calcium serves as a functional read-out for many receptors and channels.

T1 sequence (P31424 21-1171 isoform P31424-2 limits assumed): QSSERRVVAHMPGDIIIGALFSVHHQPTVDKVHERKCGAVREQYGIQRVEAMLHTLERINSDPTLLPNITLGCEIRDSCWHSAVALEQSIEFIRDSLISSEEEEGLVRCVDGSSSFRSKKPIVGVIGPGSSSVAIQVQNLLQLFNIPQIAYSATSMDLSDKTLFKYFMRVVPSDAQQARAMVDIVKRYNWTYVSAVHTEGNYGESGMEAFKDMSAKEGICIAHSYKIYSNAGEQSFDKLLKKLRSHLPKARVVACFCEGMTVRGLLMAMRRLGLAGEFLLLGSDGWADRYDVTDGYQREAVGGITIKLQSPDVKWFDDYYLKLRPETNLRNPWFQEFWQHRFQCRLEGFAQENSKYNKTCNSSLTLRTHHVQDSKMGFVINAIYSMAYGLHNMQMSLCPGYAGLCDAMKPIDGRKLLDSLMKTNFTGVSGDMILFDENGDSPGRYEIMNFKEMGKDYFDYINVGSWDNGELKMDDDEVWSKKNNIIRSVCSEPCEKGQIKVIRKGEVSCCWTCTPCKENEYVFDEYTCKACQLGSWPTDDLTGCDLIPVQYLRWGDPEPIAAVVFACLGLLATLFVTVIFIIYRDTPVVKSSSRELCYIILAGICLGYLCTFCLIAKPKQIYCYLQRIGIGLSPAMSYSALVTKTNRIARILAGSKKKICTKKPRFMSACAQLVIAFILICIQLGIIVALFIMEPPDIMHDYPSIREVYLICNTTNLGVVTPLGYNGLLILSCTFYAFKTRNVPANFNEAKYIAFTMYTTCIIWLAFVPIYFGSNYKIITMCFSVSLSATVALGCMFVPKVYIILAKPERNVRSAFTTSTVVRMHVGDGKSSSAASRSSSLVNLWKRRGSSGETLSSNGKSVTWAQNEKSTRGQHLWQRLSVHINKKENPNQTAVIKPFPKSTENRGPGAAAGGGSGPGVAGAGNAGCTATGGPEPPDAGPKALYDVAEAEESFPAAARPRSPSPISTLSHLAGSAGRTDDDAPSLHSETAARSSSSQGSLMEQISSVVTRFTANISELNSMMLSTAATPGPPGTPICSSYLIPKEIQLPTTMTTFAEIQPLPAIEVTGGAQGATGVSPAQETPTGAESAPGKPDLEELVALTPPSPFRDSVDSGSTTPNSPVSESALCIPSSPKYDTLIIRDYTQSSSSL

In turn, `O=C(c1ccc(F)c(F)c1)N1CCC[C@H](c2noc(-c3ccc[nH]3)n2)C1` [Example 10, (3,4-Difluoro-phenyl)-{(S)-3-[5-(1H-pyrrol-2-yl)-[1,2,4]oxadiazol-3-yl]-piperidin-1-yl}-methanone] came in with a melting point of 168 °C. Moreover, the EC50 on rat mGluR5 receptor is < 1000 nM.

`O=C(c1ccc(F)cc1)N1CCC[C@H](c2nc(-c3cc(F)c[nH]3)no2)C1` [Example 50, (4-Fluoro-phenyl)-{(S)-3-[3-(4-fluoro-1H-pyrrol-2-yl)-[1,2,4]oxadiazol-5-yl]-piperidin-1-yl}-methanone]: the melting point was 146.5 to 147.2 °C. Moreover, the EC50 on rat mGluR5 receptor is < 1000 nM.

With `O=C(c1ccc(F)nc1)N1CCC[C@H](c2noc(-c3cc(C(F)(F)F)c[nH]3)n2)C1` [Example 78, (6-Fluoro-pyridin-3-yl)-{(S)-3-[5-(4-trifluoromethyl-1H-pyrrol-2-yl)-[1,2,4]oxadiazol-3-yl]-piperidin-1-yl}-methanone], the melting point was determined as 165.7 °C.

For the molecule `Cc1c[nH]c(-c2noc([C@H]3CCCN(C(=O)c4ccc(F)c(F)c4)C3)n2)c1` [Example 32, (3,4-Difluoro-phenyl)-{(S)-3-[3-(4-methyl-1H-pyrrol-2-yl)-[1,2,4]oxadiazol-5-yl]-piperidin-1-yl}-methanone], the melting point lay in the range of 166 to 167 °C. At rat mGluR5 receptor, the EC50 is < 1000 nM.

With `O=C(c1ccc(F)c(F)c1)N1CCCC(c2noc(-c3ncc[nH]3)n2)C1` (centres unmarked) [Example 18, (3,4-Difluoro-phenyl)-{3-[5-(1H-imidazol-2-yl)-[1,2,4]oxadiazol-3-yl]-piperidin-1-yl}-methanone], the melting point is 148.5 to 148.9 °C. The EC50 at rat mGluR5 receptor was 1000 to 10000 nM.

In turn, `O=C(c1ccc(F)nc1)N1CCCC(c2noc(-c3ccc[nH]3)n2)C1` (centres unmarked) [Example 8, (6-Fluoro-pyridin-3-yl)-{3-[5-(1H-pyrrol-2-yl)-[1,2,4]oxadiazol-3-yl]-piperidin-1-yl}-methanone] had a melting point of 143 °C. The EC50 on rat mGluR5 receptor was 1000 to 10000 nM.

On to `O=C(c1ccc(F)cc1)N1CCC[C@H](c2noc(-c3ccc[nH]3)n2)C1` [Example 22, (4-Fluoro-phenyl)-{(S)-3-[5-(1H-pyrrol-2-yl)-[1,2,4]oxadiazol-3-yl]-piperidin-1-yl}-methanone], for which the melting point was determined as 181 °C. For the same molecule, the EC50 on rat mGluR5 receptor is < 1000 nM.

For `O=C(c1ccc(F)cc1F)N1CCCC(c2noc(-c3ccc[nH]3)n2)C1` (centres unmarked) [Example 6, (2,4-Difluoro-phenyl)-{3-[5-(1H-pyrrol-2-yl)-[1,2,4]oxadiazol-3-yl]-piperidin-1-yl}-methanone], the melting point is 151 °C. The EC50 on rat mGluR5 receptor was < 1000 nM.

As to `Cc1oncc1C(=O)N1CCCC(c2noc(-c3cc4ccccc4[nH]3)n2)C1` (centres unmarked) [Example 26, {3-[5-(1H-Indol-2-yl)-[1,2,4]oxadiazol-3-yl]-piperidin-1-yl}-(5-methyl-isoxazol-4-yl)-methanone], the melting point was 175.6 to 177.2 °C. Moreover, on rat mGluR5 receptor, the EC50 lay in the range of 1000 to 10000 nM.

Molecule `O=C(c1ccc(F)cc1)N1CCCC(c2noc(-c3cc4ccccc4[nH]3)n2)C1` (centres unmarked) [Example 11, (4-Fluoro-phenyl)-{3-[5-(1H-indol-2-yl)-[1,2,4]oxadiazol-3-yl]-piperidin-1-yl}-methanone] yielded a melting point of 199 to 201 °C. Further, the EC50 at rat mGluR5 receptor was in the range of 1000 to 10000 nM.

Regarding `O=C(c1ccc(F)c(F)c1)N1CCC[C@H](c2nc(-c3cc4ccccc4[nH]3)no2)C1` [Example 15, (3,4-Difluoro-phenyl)-{(S)-3-[3-(1H-indol-2-yl)-[1,2,4]oxadiazol-5-yl]-piperidin-1-yl}-methanone], the melting point fell in the range of 93 to 94 °C. Further, the EC50 at rat mGluR5 receptor is > 10000 nM.

The molecule `N#Cc1c[nH]c(-c2nc([C@H]3CCCN(C(=O)c4ccc(F)cc4)C3)no2)c1` [Example 72, (4-Fluoro-phenyl)-{(S)-3-[5-(4-cyano-1H-pyrrol-2-yl)-[1,2,4]oxadiazol-3-yl]-piperidin-1-yl}-methanone] registered a melting point of 204.8 to 205.6 °C. On rat mGluR5 receptor, the EC50 fell in the range of 1000 to 10000 nM.

Molecule `O=C(c1ccc(F)nc1)N1CCC[C@H](c2nc(-c3ccc[nH]3)no2)C1` [Example 4, (6-Fluoro-pyridin-3-yl)-{(S)-3-[3-(1H-pyrrol-2-yl)-[1,2,4]oxadiazol-5-yl]-piperidin 1-yl}-methanone] came in with a melting point of 131 to 132 °C. Further, the EC50 on rat mGluR5 receptor lay in the range of 1000 to 10000 nM.

In the case of `O=C(c1ccncc1F)N1CCC[C@H](c2nc(-c3cc(Cl)c[nH]3)no2)C1` [Example 67, {(S)-3-[3-(4-Chloro-1H-pyrrol-2-yl)-[1,2,4]oxadiazol-5-yl]-piperidin-1-yl}-(3-fluoro-pyridin-4-yl)-methanone], the EC50 at rat mGluR5 receptor was in the range of 1000 to 10000 nM.

On to `CC1(C)CC(c2nc(-c3ccc[nH]3)no2)CN(C(=O)c2ccc(F)cc2)C1` (centres unmarked) [Example 49, {3,3-Dimethyl-5-[3-(1H-pyrrol-2-yl)-[1,2,4]oxadiazol-5-yl]-piperidin-1-yl}-(4-fluoro-phenyl)-methanone], for which the concentration giving a half-maximal response (EC50) at rat mGluR5 receptor lay in the range of 1000 to 10000 nM.

On to `O=C(c1ccc(F)nc1)N1CCC[C@H](c2nc(-c3cc(F)c[nH]3)no2)C1` [Example 52, (6-Fluoro-pyridin-3-yl)-{(S)-3-[3-(4-fluoro-1H-pyrrol-2-yl)-[1,2,4]oxadiazol-5-yl]-piperidin-1-yl}-methanone], for which the EC50 on rat mGluR5 receptor was < 1000 nM.

Take `O=C(c1ccc(F)cc1F)N1CCC[C@H](c2nc(-c3cc4ccccc4[nH]3)no2)C1` [Example 12, (2,4-Difluoro-phenyl)-{(S)-3-[3-(1H-indol-2-yl)-[1,2,4]oxadiazol-5-yl]-piperidin-1-yl}-methanone]: at rat mGluR5 receptor, the EC50 lay within 1000 to 10000 nM.

With `O=C(c1ccc(F)cc1)N1CCC(c2nc(-c3ccc[nH]3)no2)C1` (centres unmarked) [Example 57, (4-Fluoro-phenyl)-{3-[3-(1H-pyrrol-2-yl)-[1,2,4]oxadiazol-5-yl]-pyrrolidin-1-yl}-methanone], the EC50 on rat mGluR5 receptor lay in the range of 1000 to 10000 nM.

On to `O=C(c1ccnc(F)c1)N1CCC[C@H](c2nc(-c3cc(Cl)c[nH]3)no2)C1` [Example 66, {(S)-3-[3-(4-Chloro-1H-pyrrol-2-yl)-[1,2,4]oxadiazol-5-yl]-piperidin-1-yl}-(2-fluoro-pyridin-4-yl)-methanone], for which the EC50 on rat mGluR5 receptor was 1000 to 10000 nM.

`O=C(c1ccc(F)cc1)N1CCC[C@H](c2noc(-c3cc(Cl)c[nH]3)n2)C1` [Example 39, {(S)-3-[5-(4-Chloro-1H-pyrrol-2-yl)-[1,2,4]oxadiazol-3-yl]-piperidin-1-yl}-(4-fluoro-phenyl)-methanone]: the EC50 at rat mGluR5 receptor was < 1000 nM.

Regarding `O=C(c1ccc(F)cc1)N1CCC[C@H](c2nc(-c3cc(Cl)c[nH]3)no2)C1` [Example 43, {(S)-3-[3-(4-Chloro-1H-pyrrol-2-yl)-[1,2,4]oxadiazol-5-yl]-piperidin-1-yl}-(4-fluoro-phenyl)-methanone], the EC50 on rat mGluR5 receptor was < 1000 nM.

As to `O=C(c1ccncc1F)N1CCC[C@H](c2noc(-c3cc(C(F)(F)F)c[nH]3)n2)C1` [Example 77, (3-Fluoro-pyridin-4-yl)-{(S)-3-[5-(4-trifluoromethyl-1H-pyrrol-2-yl)[1,2,4]oxadiazol-3-yl]-piperidin-1-yl}-methanone], the EC50 on rat mGluR5 receptor lay in the range of 1000 to 10000 nM.

Take `Cc1c[nH]c(-c2noc([C@H]3CCCN(C(=O)c4cnoc4C)C3)n2)c1` [Example 35, (5-Methyl-isoxazol-4-yl)-{(S)-3-[3-(4-methyl-1H-pyrrol-2-yl)-[1,2,4]oxadiazol-5-yl]-piperidin-1-yl}-methanone]: the EC50 on rat mGluR5 receptor is < 1000 nM.

As for `O=C(c1ccnc(F)c1)N1CCC[C@H](c2noc(-c3cc(Cl)c[nH]3)n2)C1` [Example 41, {(S)-3-[5-(4-Chloro-1H-pyrrol-2-yl)-[1,2,4]oxadiazol-3-yl]-piperidin-1-yl}-(2-fluoro-pyridin-4-yl)-methanone], at rat mGluR5 receptor, the concentration giving a half-maximal response (EC50) was < 1000 nM.

Regarding `Cc1ccc(-c2nc([C@H]3CCCN(C(=O)c4ccc(F)cc4)C3)no2)[nH]1` [Example 38, (4-Fluoro-phenyl)-{(S)-3-[5-(5-methyl-1H-pyrrol-2-yl)-[1,2,4]oxadiazol-3-yl]-piperidin-1-yl}-methanone], on rat mGluR5 receptor, the EC50 lay in the range of 1000 to 10000 nM.

With `O=C(c1ccc(F)nc1)N1CCC[C@H](c2nc(-c3cc(Cl)c[nH]3)no2)C1` [Example 65, {(S)-3-[3-(4-Chloro-1H-pyrrol-2-yl)-[1,2,4]oxadiazol-5-yl]-piperidin-1-yl}-(6-fluoro-pyridin-3-yl)-methanone], the EC50 on rat mGluR5 receptor was 1000 to 10000 nM.
